Reference: paper PMC8231969, “Characterization of Two NMN Deamidase Mutants as Possible Probes for an NMN Biosensor” (International Journal of Molecular Sciences, 2021)
Read-outs that look alike come from different tables or passages of the source.

Legend:
K61Q PncC = biological target: T1, K61Q PncC (Escherichia coli, UniProt P0A6G3, K61Q); assay type: binding, E. coli
T1 construct: made in house; host or cells: E. coli BL21(DE3)
Experimental: (§1) Experimental data were processed using the OriginPro 8.0 (OriginLab Corporation, Northampton, MA, USA). A non-linear curve analysis (Hill1 plot) was used for plotting the F0/F values in function of the metabolite concentration, to obtain the Kd value.
Percentage of the K61Q protein that would exist in complex with NMN in a cellular setting was calculated based on the Kd value, by using the equation: %=100/1+Kd/[NMN]

S29A PncC = biological target: T2, S29A PncC (Escherichia coli, UniProt P0A6G3, S29A); assay type: binding, E. coli
T2 construct: made in house; host or cells: E. coli BL21(DE3)
Text: as §1

[1] = test system: glutamine binding protein (GlnBP); details: GlnBP, high concentration of nucleotide
Experimental: Steady-state measurements were performed using an ISS_K2 fluorometer (ISS, Urbana-Champaign, IL, USA), equipped with a one-cell temperature-controlled sample holder. […] Excitation and emission slit widths were fixed at 0.5 and 1.0 nm, respectively. […] The nucleotides were added to reach the indicated final concentration (from 0.18 to 96 µM) with an incubation interval of 10 min. Triplicate readings were done for each experimental point. Experiments were repeated three times (for NMN and NaMN) or twice (for all the other metabolites). Controls experiments were performed using the E. coli Glutamine Binding Protein (GlnBP, 3µM), with increasing concentration of NMN or NaMN, at the same conditions.
Percentages of reduction of fluorescence intensities compared to buffer, were calculated as follow: (normalized fluorescence in presence of analyte at a given [µM]/normalized fluorescence in presence of corresponding volume of buffer) × 100.

[2] = biological target: the molecule itself; experiment: SEC; gel filtration on Superose 12 HR 10/30, 50 mM HEPES pH 7.5, 0.3 M NaCl, 1 mM TCEP; 45 ug wild type, 30 ug mutants; calibrated with protein standards; self-association (dimer)
[3] = nucleotide 96 µM (maximum quenching)

Row | Molecule | K61Q PncC fluorescence quenching (%) vs buffer (K61Q PncC; nucleotide 0.185 µM) [%] | K61Q PncC fluorescence quenching (%) vs buffer (K61Q PncC; nucleotide 0.375 µM) [%] | K61Q PncC fluorescence quenching (%) vs buffer (K61Q PncC; nucleotide 0.75 µM) [%] | K61Q PncC fluorescence quenching (%) vs buffer (K61Q PncC; nucleotide 1.5 µM) [%] | K61Q PncC fluorescence quenching (%) vs buffer (K61Q PncC; nucleotide 3 µM) [%] | K61Q PncC fluorescence quenching (%) vs buffer (K61Q PncC; nucleotide 6 µM) [%] | K61Q PncC fluorescence quenching (%) vs buffer (K61Q PncC; nucleotide 12 µM) [%] | K61Q PncC fluorescence quenching (%) vs buffer (K61Q PncC; nucleotide 24 µM) [%] | K61Q PncC fluorescence quenching (%) vs buffer (K61Q PncC; nucleotide 48 µM) [%] | S29A PncC fluorescence quenching (%) vs buffer (S29A PncC; nucleotide 0.185 µM) [%] | S29A PncC fluorescence quenching (%) vs buffer (S29A PncC; nucleotide 0.375 µM) [%] | S29A PncC fluorescence quenching (%) vs buffer (S29A PncC; nucleotide 0.75 µM) [%] | S29A PncC fluorescence quenching (%) vs buffer (S29A PncC; nucleotide 1.5 µM) [%] | S29A PncC fluorescence quenching (%) vs buffer (S29A PncC; nucleotide 3 µM) [%] | S29A PncC fluorescence quenching (%) vs buffer (S29A PncC; nucleotide 6 µM) [%] | S29A PncC fluorescence quenching (%) vs buffer (S29A PncC; nucleotide 12 µM) [%] | S29A PncC fluorescence quenching (%) vs buffer (S29A PncC; nucleotide 24 µM) [%] | S29A PncC fluorescence quenching (%) vs buffer (S29A PncC; nucleotide 48 µM) [%] | reduction of fluorescence of GlnBP [1] | stoichiometry N [2] | also measured
1 | NC(=O)c1ccc[n+]([C@@H]2O[C@H](COP(=O)([O-])OP(=O)(O)OC[C@H]3O[C@@H](n4cnc5c(N)ncnc54)[C@H](O)[C@@H]3O)[C@@H](O)[C@H]2O)c1 [NAD, nicotinamide adenine dinucleotide] | 0.63 | 1.39 | 1.57 | 0.80 | 0.85 | 0 | 0.65 | 0.36 | 0.72 | 0.52 | 0.32 | 0.80 | 0 | 0.19 | 0.32 | 1.35 | 2.54 | 4.58 | 6.6% | – | –
2 | NC(=O)c1ccc[n+]([C@@H]2O[C@H](COP(=O)(O)OP(=O)([O-])OC[C@H]3O[C@@H](n4cnc5c(N)ncnc54)[C@H](OP(=O)(O)O)[C@@H]3O)[C@@H](O)[C@H]2O)c1 [NADP] | 0 | 0.06 | 0.29 | 0.55 | 0.42 | 0 | 1.20 | 1.59 | 2.90 | 0 | 0 | 0.67 | 1.60 | 2.74 | 2.87 | 3.89 | 4.31 | 6.36 | 4.8% | – | K61Q PncC fluorescence quenching (%) vs buffer (K61Q PncC; nucleotide 96 µM): 5.1%
3 | NC(=O)c1ccc[n+]([C@@H]2O[C@H](CO)[C@@H](O)[C@H]2O)c1 [NR, nicotinamide riboside] | 2.13 | 2.97 | 3.37 | 3.71 | 3.13 | 2.36 | 2.7 | 2.1 | 1.79 | 0 | 0.12 | 0.80 | 0.96 | 1.84 | 1.98 | 2.29 | 3.13 | 3.51 | do not affect | – | S29A PncC fluorescence quenching (%) vs buffer (S29A PncC; [3]): 4.48%
4 | O=C(O)c1cccnc1 [Na, nicotinic acid] | 0.49 | 1.2 | 2.11 | 2.66 | 2.89 | 2.81 | 3.26 | 2.74 | 3.69 | 0 | 0 | 0 | 0 | 0 | 0 | 0 | 0.16 | 0.62 | do not affect | – | –
5 | Nc1ncnc2c1ncn2[C@@H]1O[C@H](COP(=O)(O)OP(=O)([O-])OC[C@H]2O[C@@H]([n+]3cccc(C(=O)O)c3)[C@H](O)[C@@H]2O)[C@@H](O)[C@H]1O [NaAD, nicotinic acid adenine dinucleotide] | 0.65 | 1.02 | 1.68 | 2.19 | 2.25 | 2.39 | 3.72 | 4.13 | 5.77 | 0 | 0 | 0 | 0 | 0 | 0 | 0 | 0 | 1.97 | 6.3% | – | –
6 | NC(=O)c1cccnc1 [Nam, nicotinamide] | 0 | 0.34 | 0.87 | 0.68 | 0.91 | 0.26 | 1.15 | 1.04 | 1.14 | 0.08 | 0.18 | 0.48 | 1.49 | 2.51 | 2.65 | 3.29 | 3.29 | 3.71 | do not affect | – | S29A PncC fluorescence quenching (%) vs buffer (S29A PncC; [3]): 5.01%
7 | NMN deamidase (PncC) from E. coli, wild type (enzyme, UniProt P0A6G3 1-165, looked up, NMN deamidase PncC (EC 3.5.1.42), E. coli; the enzyme consists of 165 residues, 17.6 kDa; expressed from pCA24N-pncC; also called WT PncC; wild-type PncC; source: E. coli BL21(DE3), purified (HisTrap HP column, dialysis); not shown: His tag (from the HisTrap HP purification)) MTDSELMQLSEQVGQALKARGATVTTAESCTGGWVAKVITDIAGSSAWFERGFVTYSNEAKAQMIGVREETLAQHGAVSEPVVVEMAIGALKAARADYAVSISGIAGPDGGSEEKPVGTVWFAFATARGEGITRRECFSGDRDAVRRQATAYALQTLWQQFLQNT | – | – | – | – | – | – | – | – | – | – | – | – | – | – | – | – | – | – | – | 2 | –
8 | S29A PncC (enzyme, E. coli, UniProt P0A6G3 1-165, looked up, NMN deamidase PncC (EC 3.5.1.42), E. coli; 165 residues; mutagenized pCA24N-pncC plasmid; also called PncC S29A mutant; source: E. coli BL21(DE3), purified (HisTrap HP column, dialysis); not shown: His tag (from the HisTrap HP purification)) MTDSELMQLSEQVGQALKARGATVTTAEACTGGWVAKVITDIAGSSAWFERGFVTYSNEAKAQMIGVREETLAQHGAVSEPVVVEMAIGALKAARADYAVSISGIAGPDGGSEEKPVGTVWFAFATARGEGITRRECFSGDRDAVRRQATAYALQTLWQQFLQNT | – | – | – | – | – | – | – | – | – | – | – | – | – | – | – | – | – | – | – | 2 | –
9 | K61Q PncC (enzyme, E. coli, UniProt P0A6G3 1-165, looked up, NMN deamidase PncC (EC 3.5.1.42), E. coli; 165 residues; mutagenized pCA24N-pncC plasmid; also called PncC K61Q mutant; source: E. coli BL21(DE3), purified (HisTrap HP column, dialysis); not shown: His tag (from the HisTrap HP purification)) MTDSELMQLSEQVGQALKARGATVTTAESCTGGWVAKVITDIAGSSAWFERGFVTYSNEAQAQMIGVREETLAQHGAVSEPVVVEMAIGALKAARADYAVSISGIAGPDGGSEEKPVGTVWFAFATARGEGITRRECFSGDRDAVRRQATAYALQTLWQQFLQNT | – | – | – | – | – | – | – | – | – | – | – | – | – | – | – | – | – | – | – | 2 | –
